Measurements: patent publication EP0583821A1, “Atriopeptins, guanylate cyclase activators, and phosphodiesterase inhibitors as treatment for glaucoma, hydrocephalus and cerebral edema (cranial fluid volume dysfunction)” (THE GENERAL HOSPITAL CORPORATION, priority 1987, dated 1988)

Assays:
volunteer human = assay: Eye drop in a volunteer human: IOP, blood pressure and pulse; format: in vivo; conditions: 50µl of 0.1% aqueous solution in one eye
Method: The effect of administration of a nitroglycerine eye drop preparation (50µl of 0.1% aqueous solution in one eye) in a volunteer human is illustrated in Figure 14. IOP was measured by applanation pnumatonometry and blood pressure and pulse were measured by arm cuff.

rabbits [1] = assay: Intraocular pressure and ocular observations after topical (eye drop) application; format: in vivo, rabbit
Method: The measurement of intraocular pressure (IOP), was performed using procedures similar to those described in Nathanson, Brit. J. Pharmacol., 73:97 (1981) and Nathanson, Current Eye Res., 4:191 (1985). Briefly, male (3-5 kg), New Zealand white rabbits were housed under standard conditions and exposed to a 12 hr light-dark cycle. IOP was measured with a Perkins applanation tonometer after topical anesthesia with 0.4% benoxinate (and 0.25% sodium fluorescein). The tonometer had been calibrated previously by connecting the anterior chamber of enucleated rabbit eyes to a manometer (and reservoir) and taking tonometer readings at different pressures. A number of preliminary IOP readings were made in order to accommodate the animals to the measurement procedure. Readings were then taken just prior to drug or vehicle injection and at 3, 9, 20, 27, 44, 51, 72, and 144 hours post-injection.
A potent PDE inhibitor of the arylxanthine class, 1,3-dibutylxanthine, was applied unilaterally and topically to rabbit eyes in a 0.5% solution. […] The IOP was decreased 4 mm (Hg) in the ipsilateral eye (Figure 8).
Again there was about a 4 mm (Hg) decrease in intraocular pressure. […] This xanthine inhibited the enzyme with an IC₅₀ (concentration necessary for 50% enzyme inhibition) of 25 uM.
(§1) The effect of nitroglycerine eye drops on rabbit intraocular pressure was also measured. The IOP of 8 conscious, male albino rabbits (3-4 kg) was measured by applanation pnumatonometry after topical anesthesia with 0.4% benoxinate. Nitroglycerine in phosphate buffered saline, pH 7.4, was given unilaterally, in two 25µl drops spaced five minutes apart. Blood pressure and pulse rate were measured by a photoelectric detector using an automated external tail cuff. […] By 24 hours, pressure had returned to normal.

rabbits [2] = assay: Systemic blood pressure and pulse rate (tail cuff) after eye drops; format: in vivo, rabbit; conditions: 0.03% eye drops
Method: as §1

guanylate cyclase = assay: Guanylate cyclase activation in crude broken-cell preparation of ciliary process; format: biochemical, rabbit; conditions: low concentrations
Method: Generally, the broken cell preparations are prepared according to the method described in a paper by Nathanson et al., (Molecular Pharmacology 20:68 (1981), which is herein incorporated by reference. Choroid epithelial cells are prepared as described in Example 1. To measure activity of atriopeptins, analogues, or agonists thereof, washed particulate cell preparations are prepared by using the pellet obtained following high speed centrifugation. To measure direct activators of guanylate cyclase, the crude broken-cell preparation without centrifugation is used. Guanylate cyclase activity is measured in appropriate buffer-containing GTP, cofactors, tissue fraction, and the compound to be tested. […] Cyclic GMP can be measured by any test which indicates the presence thereof, typically by the radioimmunoassay as described in Example 6. […] Ka^B, where B is the test compound, is compared with the constant (Ka^ANF) determined in an analogous way using rat atrial natriuretic factor (rANF) as a standard. […]
The effect of rANP on membrane-bound guanylate cyclase and adenylate cyclase activity in various brain-barrier tissues and tissue fractions from rabbit was compared with its activity in cerebrum and cerebellum. Guanylate cyclase was measured as the rate of cyclic GMP formation by modifications of the technique of Waldman et al., supra, incorporated herein by reference. […]

O=[N+]([O-])OCC(CO[N+](=O)[O-])O[N+](=O)[O-] [nitroglycerine, 1,2,3-propanetriol trinitrate] was tested. Which “effect on IOP” value (volunteer human) did it give?
Its value is “significantly decreased IOP”.

What about the “systemic blood pressure or pulse” value (volunteer human) of the same molecule?
The value was “without change”.

And the “decrease in IOP at maximum” value (rabbits [1]; 0.03% (gm/100ml) solution, two 25µl drops, 8 rabbits)?
Its value is 5.2 mm Hg.

And the “IOP at six hours” value (rabbits [1]; 0.03% solution)?
Its value is “still significantly reduced”.

What about the “time of greatest IOP decrease” value (rabbits [1]; 0.03% solution) of the same molecule?
The value was “greatest at one hour”.

And the “time until pressure had returned to normal” value (rabbits [1]; 0.03% solution)?
The value was no more than 24 h.

What about the “effect of higher doses on IOP” value (rabbits [1]; 50µl eye drops, doses above 0.03%, Fig. 13) of the same molecule?
The value was “no additional decrease in IOP”.

What about the “effect of lower doses on IOP” value (rabbits [1]; 50µl eye drops, lower doses, Fig. 13) of the same molecule?
Its value is “less effective”.

And the “conjunctival inflammation and pupillary diameter” value (rabbits [1]; all doses)?
Its value is “At no dose did conjunctival inflammation nor any change in pupillary diameter occur”.

And the “contralateral decrease in pressure relative to that seen ipsilaterally” value (rabbits [1]; higher doses)?
Its value is 40-75%.

And the “hyperemia of the conjunctival vessels” value (rabbits [1]; higher doses (0.1%))?
Its value is “slight, transient (five minutes) hyperemia”.

And the “change in pulse rate or in systolic, diastolic or mean blood pressure” value (rabbits [2])?
The value was “no significant change”.

What about the “stimulation of basal guanylate cyclase activity” value (guanylate cyclase) of the same molecule?
The value was “significant stimulation”.
